Data on ten compounds can be found in ChEMBL document CHEMBL1201862, “PubChem BioAssay data set” (2004).

Structures are written as SMILES.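 Results reflect a 48-hour exposure of cells in 96-well plates to compound at five concentrations. GI50: concentration for 50% inhibition of growth.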 Active and inactive are the calls of the source. Rule as the data show it: active = GI50 up to about 1.1 µM and inactive = higher.

Common to all, as to assay: growth of human tumour cells (NCI), 48 h
Experiment [1] relates to TK-10.
Experiment [2] has as its system RPMI-8226.
Experiment [3] has as its system EKVX.
For experiment [4], the system named is OVCAR-8.
Experiment [5] has as its system SF-295.
Experiment [6] has as its system UO-31.
Experiment [7] deals with OVCAR-4.
The test system of experiment [8] is IGROV-1.
For experiment [9], the system named is SK-MEL-28.
Experiment [10] concerns KM12.
Experiment [11] relates to SR.
The test system of experiment [12] is 786-0.
Experiment [13] has as its system A549.
In experiment [14] the test system is A498.
Experiment [15] has as its system COLO 205.
For experiment [16], the system named is HCT-15.
In experiment [17] the test system is MDA-MB-231.
Experiment [18] concerns Hs-578T.
The subject of experiment [19] is NCI-H522.
For experiment [20], the system named is K562.

On to `COC(=O)C(Cc1c[nH]c2ccccc12)NP(=O)(O)OCC1OC(n2cc(F)c(=O)[nH]c2=O)CC1O` (stereo not given), for which the GI50 in [1] is > 100 µM (inactive); in experiment [2], 31.3 µM (inactive); in experiment [3], > 100 µM (inactive); in [4], 65.9 µM (inactive); in experiment [5], > 91.2 µM (inactive); in [6], 23.2 µM (inactive). The GI50 in [7] was > 100 µM (inactive); in [8], > 71.1 µM (inactive); in [9], > 100 µM (inactive); in experiment [10] it was > 96.2 µM (inactive); in experiment [11] it was 5.02 µM (inactive); in experiment [12], 28.2 µM (inactive). The GI50 in experiment [13] was 10.4 µM (inactive); in experiment [14], 0.964 µM (active); in experiment [15] it was > 100 µM (inactive); in experiment [16] it was > 100 µM; in experiment [17] it was > 100 µM (inactive); in experiment [18], > 100 µM (inactive). Also, the GI50 in experiment [19] and in experiment [20] was > 100 µM (inactive) each time.

For the compound `COc1cc2c(NCCCCCCO[N+](=O)[O-])ncnc2c(OC)c1OC`, the GI50 was 20.9 µM (inactive) in experiment [1]; 10.2 µM (inactive) in experiment [2]; 22.5 µM (inactive) in experiment [3]; 23.9 µM (inactive) in [4]; 21.1 µM (inactive) in experiment [5]; 7.93 µM (inactive) in experiment [6]. Besides, the GI50 is 50.4 µM (inactive) in [7]; 23.1 µM (inactive) in experiment [8]; 45.1 µM (inactive) in [9]; 16.2 µM (inactive) in [10]; 9.75 µM (inactive) in experiment [11]; 26 µM (inactive) in experiment [12]. For the same compound, the GI50 was 28.7 µM (inactive) in experiment [13]; 18.1 µM (inactive) in [14]; 21.4 µM (inactive) in [15]; 24 µM in experiment [16]; 14.2 µM (inactive) in experiment [17]; 29.2 µM (inactive) in experiment [18]. For the same compound, the GI50 was 19.7 µM (inactive) in [19] and 29.2 µM (inactive) in experiment [20].

Consider `CCCCCCCC1C(C)c2c([nH]c3ccccc23)C2C(=O)N(c3ccc(OC)cc3)C(=O)C21` (stereo not given), for which the GI50 in experiment [1] is 2.38 µM (inactive); in [2] it was > 5.73 µM (inactive); in [3], 3.97 µM (inactive); in experiment [4], 2.52 µM (inactive); in experiment [5] it was 2.58 µM (inactive); in [6], 2.51 µM (inactive). The GI50 is 2.9 µM (inactive) in experiment [7]; > 5.89 µM (inactive) in [8]; 5.48 µM (inactive) in experiment [9]; 6.34 µM (inactive) in experiment [10]; 2.84 µM (inactive) in [11]; 1.66 µM (inactive) in [12]. Moreover, the GI50 was 2.33 µM (inactive) in experiment [13]; 2.67 µM (inactive) in experiment [14]; 3.78 µM (inactive) in experiment [15]; > 7.76 µM in experiment [16]; 3.82 µM (inactive) in experiment [17]; 2 µM (inactive) in [18]. Also, the values for the GI50 in [19] and in experiment [20] were 4.48 µM (inactive) and 3.11 µM (inactive), respectively.

For `CCOP(C)(=O)/C(Cc1ccc(OC)c(OC)c1)=N\O` (stereo not given), the GI50 in experiment [1], in experiment [2], in [3], in experiment [4], in [5] and in experiment [6] was > 100 µM (inactive) throughout. Also, the GI50 in experiment [7], in experiment [8], in [9], in experiment [10], in experiment [11] and in experiment [12] was > 100 µM (inactive) throughout. Also, the GI50 in experiment [13] was > 100 µM (inactive); in [14], > 100 µM (inactive); in experiment [15], > 100 µM (inactive); in [16] it was > 100 µM; in experiment [17], > 100 µM (inactive); in [18] it was > 100 µM (inactive). In addition, the GI50 in experiment [19] and in experiment [20] was > 100 µM (inactive) in each case.

With `C=C(CN(C)C)C(=O)c1ccccc1OC`, the GI50 is 16.1 µM (inactive) in experiment [1]; 5.28 µM (inactive) in experiment [2]; 25.8 µM (inactive) in experiment [3]; 21.6 µM (inactive) in experiment [4]; > 56.9 µM (inactive) in [5]; 16.4 µM (inactive) in [6]. Further, the GI50 in experiment [7] was 20.6 µM (inactive); in experiment [8] it was 24.4 µM (inactive); in experiment [9], 20.2 µM (inactive); in experiment [10], 25.3 µM (inactive); in experiment [11], 10.2 µM (inactive); in experiment [12] it was 13.9 µM (inactive). The GI50 in [13] is > 67.8 µM (inactive); in experiment [14] it was 28.4 µM (inactive); in experiment [15] it was 3.53 µM (inactive); in [16], 15.9 µM; in [17], 14.4 µM (inactive); in experiment [18], 20.7 µM (inactive). For the same compound, the GI50 in experiment [19] is 2.04 µM (inactive); in experiment [20], 4.35 µM (inactive).

Regarding `CCOC(=O)C1C(=O)CC(O)(c2ccccc2)C(C(=O)OCC)C1c1ccc(N(C)C)cc1` (stereo not given), the GI50 in experiment [1] was > 59.8 µM (inactive); in experiment [2] it was 13.3 µM (inactive); in [3] it was 40.9 µM (inactive); in [4], 20 µM (inactive); in experiment [5], 5.71 µM (inactive); in experiment [6], 49.8 µM (inactive). The GI50 in experiment [7] was 59.2 µM (inactive); in [8], 31.2 µM (inactive); in experiment [9], 45.6 µM (inactive); in [10] it was 20.3 µM (inactive); in experiment [11], 7.33 µM (inactive); in experiment [12], 26.7 µM (inactive). Besides, the GI50 in [13] is 35.5 µM (inactive); in experiment [14], 31.6 µM (inactive); in [15] it was 17.6 µM (inactive); in experiment [16], 34.7 µM; in [17], 28.2 µM (inactive); in [18], 2.1 µM (inactive). For the same compound, the GI50 in [19] is 9.71 µM (inactive); in [20], 6.21 µM (inactive).

In the case of `COc1cc(/C=C2/SC(c3ccccc3)N(c3ccc(Cl)cc3)C2=O)cc(OC)c1OC` (stereo not given), the GI50 is > 100 µM (inactive) in [1]; 2.99 µM (inactive) in experiment [2]; > 52.6 µM (inactive) in [3]; > 100 µM (inactive) in experiment [4]; 3.27 µM (inactive) in experiment [5]; 10.9 µM (inactive) in experiment [6]. Further, the GI50 in [7] was 7.98 µM (inactive); in experiment [8], > 100 µM (inactive); in experiment [9], > 56.6 µM (inactive); in [10] it was 5.46 µM (inactive); in [11] it was 7.6 µM (inactive); in experiment [12] it was > 100 µM (inactive). Besides, the GI50 in [13] was > 41.5 µM (inactive); in experiment [14], > 80 µM (inactive); in [15] it was 1.3 µM (inactive); in experiment [16], 8.13 µM; in experiment [17], > 100 µM (inactive); in experiment [18] it was > 100 µM (inactive). The GI50 in [19] was 18.3 µM (inactive); in [20], 0.244 µM (active).

Turning to `Nc1ccc2c(=O)cc(-c3cccs3)[nH]c2n1`, the GI50 in [1] was 7.13 µM (inactive); in experiment [2], 1.54 µM (inactive); in [3] it was 6.5 µM (inactive); in experiment [4], 2.86 µM (inactive); in [5] it was 3.1 µM (inactive); in experiment [6], 3.54 µM (inactive). The GI50 in experiment [7] was > 35.7 µM (inactive); in experiment [8] it was 2.64 µM (inactive); in experiment [9] it was 4.32 µM (inactive); in experiment [10], 0.535 µM (active); in experiment [11], 0.151 µM (active); in [12], 3.45 µM (inactive). The GI50 is 3.65 µM (inactive) in [13]; > 37.8 µM (inactive) in [14]; 0.716 µM (active) in experiment [15]; 1.29 µM in [16]; 11.8 µM (inactive) in experiment [17]; 3.66 µM (inactive) in experiment [18]. Moreover, the GI50 in experiment [19] was 1.36 µM (inactive); in experiment [20], 0.847 µM (active).

On to `CCOP(=O)(O)CN1CCNCCN(CP(=O)(O)OCC)CCNCC1`, for which the GI50 was > 100 µM (inactive) in experiment [1]; > 100 µM (inactive) in [2]; > 100 µM (inactive) in [3]; > 100 µM (inactive) in [4]; > 100 µM (inactive) in experiment [5]; 35.2 µM (inactive) in [6]. In addition, the GI50 is > 100 µM (inactive) in experiment [7]; > 100 µM (inactive) in experiment [8]; > 100 µM (inactive) in [9]; > 100 µM (inactive) in experiment [10]; > 10 µM (inactive) in experiment [11]; > 100 µM (inactive) in experiment [12]. For the same compound, the GI50 in [13] is > 100 µM (inactive); in experiment [14] it was > 100 µM (inactive); in experiment [15] it was 91.4 µM (inactive); in experiment [16], > 100 µM; in [17], > 100 µM (inactive); in [18] it was > 100 µM (inactive). The GI50 in experiment [19] and in [20] was > 100 µM (inactive) in each case.

For `C=C[C@]1(C)CC(O)C2C(=C)C(=O)OC2[C@H]1C(=C)C=O` (stereo not given in full), the GI50 in [1] is 3.94 µM (inactive); in [2], 0.859 µM (active); in experiment [3], 15 µM (inactive); in experiment [4], 2.16 µM (inactive); in experiment [5], 10.6 µM (inactive); in experiment [6], 6.37 µM (inactive). Further, the GI50 was 7.93 µM (inactive) in [7]; 8.87 µM (inactive) in experiment [8]; 1.3 µM (inactive) in experiment [9]; 2.17 µM (inactive) in experiment [10]; 1.91 µM (inactive) in experiment [11]; 1.91 µM (inactive) in experiment [12]. In addition, the GI50 in experiment [13] is 18.4 µM (inactive); in experiment [14], 4.42 µM (inactive); in experiment [15], 7.23 µM (inactive); in experiment [16] it was 2.06 µM; in experiment [17], 3.1 µM (inactive); in experiment [18], 14.4 µM (inactive). The GI50 in experiment [19] was 0.966 µM (active); in experiment [20] it was 2.52 µM (inactive).
